Laboratory results as given in ChEMBL document CHEMBL1201862, “PubChem BioAssay data set” (2004).
Calls of active or inactive are those of the source.

Tests used:
[1] = molecular target: Glyceraldehyde-3-phosphate dehydrogenase (Homo sapiens, UniProt P04406)
[2] = molecular target: T1, Alkaline phosphatase, tissue-nonspecific isozyme (Homo sapiens, UniProt P05186); assay: human TNAP enzyme inhibitors, SAR follow-up, biochemical, luminescent, dose response (AID 1056)
T1 sequence (P05186 whole entry): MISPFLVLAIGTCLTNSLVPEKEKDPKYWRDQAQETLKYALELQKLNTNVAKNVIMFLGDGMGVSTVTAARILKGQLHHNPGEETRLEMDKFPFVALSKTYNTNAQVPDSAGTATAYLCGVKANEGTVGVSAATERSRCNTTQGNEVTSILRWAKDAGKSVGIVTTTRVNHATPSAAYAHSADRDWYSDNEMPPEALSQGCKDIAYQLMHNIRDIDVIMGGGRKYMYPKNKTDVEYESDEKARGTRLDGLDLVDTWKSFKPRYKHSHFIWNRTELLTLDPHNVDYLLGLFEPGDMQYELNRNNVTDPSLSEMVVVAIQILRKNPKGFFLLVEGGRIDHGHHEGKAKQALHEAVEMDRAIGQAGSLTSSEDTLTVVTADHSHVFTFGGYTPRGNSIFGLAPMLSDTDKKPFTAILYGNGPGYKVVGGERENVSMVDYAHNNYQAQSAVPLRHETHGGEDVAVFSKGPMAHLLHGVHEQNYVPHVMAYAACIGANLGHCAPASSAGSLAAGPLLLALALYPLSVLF

[3] = molecular target: T2, Short transient receptor potential channel 4 (Mus musculus, UniProt Q9QUQ5); assay: mouse TRPC4 channel inhibitors, dose response, cell-based, HEK293 TRPC4/mu-opioid, Fluo-4 calcium (AID 434942); format: functional;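 also: potency of inhibitors blocking the TRPC4 calcium response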
T2 sequence (Q9QUQ5 whole entry): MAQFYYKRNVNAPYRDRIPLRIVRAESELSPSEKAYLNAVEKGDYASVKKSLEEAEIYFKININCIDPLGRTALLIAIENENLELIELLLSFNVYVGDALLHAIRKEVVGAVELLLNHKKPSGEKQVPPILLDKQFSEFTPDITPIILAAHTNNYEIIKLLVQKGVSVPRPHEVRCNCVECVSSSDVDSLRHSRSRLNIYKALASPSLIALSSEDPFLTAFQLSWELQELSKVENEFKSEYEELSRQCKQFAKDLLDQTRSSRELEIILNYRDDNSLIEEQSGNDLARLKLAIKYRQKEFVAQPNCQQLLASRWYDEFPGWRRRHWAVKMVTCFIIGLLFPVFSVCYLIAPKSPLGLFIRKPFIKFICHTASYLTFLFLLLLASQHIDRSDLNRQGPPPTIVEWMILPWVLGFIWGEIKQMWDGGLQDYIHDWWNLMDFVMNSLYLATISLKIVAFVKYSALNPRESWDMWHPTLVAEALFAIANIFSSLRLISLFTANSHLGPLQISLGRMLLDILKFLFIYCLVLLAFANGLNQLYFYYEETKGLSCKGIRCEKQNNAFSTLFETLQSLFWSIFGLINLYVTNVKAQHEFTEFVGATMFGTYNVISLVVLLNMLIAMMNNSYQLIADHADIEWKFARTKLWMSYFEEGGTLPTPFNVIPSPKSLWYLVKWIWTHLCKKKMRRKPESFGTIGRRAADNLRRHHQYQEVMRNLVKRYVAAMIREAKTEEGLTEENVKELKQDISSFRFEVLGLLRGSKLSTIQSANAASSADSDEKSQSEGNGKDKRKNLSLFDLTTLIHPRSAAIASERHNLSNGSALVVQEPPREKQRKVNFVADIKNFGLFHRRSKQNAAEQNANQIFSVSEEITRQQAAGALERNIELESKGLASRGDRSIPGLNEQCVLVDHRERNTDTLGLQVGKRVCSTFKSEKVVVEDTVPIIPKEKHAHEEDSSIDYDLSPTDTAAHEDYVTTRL

[4] = molecular target: T2, Short transient receptor potential channel 4; assay: mouse TRPC4 channel activators, dose response, cell-based, HEK293 TRPC4/mu-opioid, Fluo-4 calcium (AID 434937); format: functional
[5] = NIH-3T3 fibroblast cytotoxicity, dose response, cytotoxicity control, cell-based, fluorescence, Alamar Blue, secondary assay (AID 2327); format: functional;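 also: NIH-3T3 mouse fibroblasts cultured with fluconazole at 8 µg/mL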
[6] = system: Streptococcus sp. 'group A'; assay: growth inhibition of control SK(-) GAS strain, dose response, counter-screen for streptokinase expression inhibitor project, luminescence, kanamycin, BacTiterGlo, confirmation (AID 1900); format: functional, organism-based
[7] = C. albicans growth with fluconazole, confirmation, fluorescence, retest (AID 2467); format: functional, cell-based
[8] = microbe, parasite or virus in culture; format: functional; settings: Mycobacterium tuberculosis
Streptococcus = assay: Group A Streptococcus viability loss, dose response, counter-screen for streptokinase expression inhibitor project, luminescence, BacTiterGlo (AID 1915); format: functional, organism-based;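 also: potency for reduction of bacterial viability or growth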
Vero [9] = assay: cells; format: functional, cell-based; settings: Chlorocebus sabaeus
Vero [10] = assay: cells; format: functional; settings: Chlorocebus sabaeus
Cytochrome P450 3A4 = Cytochrome P450 3A4 (Homo sapiens, UniProt P08684); settings: Potency;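 also: confirmatory qHTS run detecting inhibitors and substrates of CYP3A4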
Chain of Cytochrome P450 3A4 (P08684 whole entry): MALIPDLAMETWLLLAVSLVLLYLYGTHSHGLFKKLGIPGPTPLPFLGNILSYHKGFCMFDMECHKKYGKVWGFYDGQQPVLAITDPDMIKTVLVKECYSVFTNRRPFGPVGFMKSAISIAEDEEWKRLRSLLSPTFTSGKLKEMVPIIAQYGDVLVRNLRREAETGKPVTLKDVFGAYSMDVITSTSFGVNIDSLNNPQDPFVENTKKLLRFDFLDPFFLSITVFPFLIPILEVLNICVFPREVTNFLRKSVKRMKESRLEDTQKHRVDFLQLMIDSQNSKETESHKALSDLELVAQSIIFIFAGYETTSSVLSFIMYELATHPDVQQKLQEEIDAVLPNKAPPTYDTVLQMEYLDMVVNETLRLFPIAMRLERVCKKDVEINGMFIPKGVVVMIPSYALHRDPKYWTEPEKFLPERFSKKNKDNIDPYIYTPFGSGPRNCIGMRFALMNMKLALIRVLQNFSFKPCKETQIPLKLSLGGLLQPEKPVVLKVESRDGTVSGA

[11] = molecular target: Glucose-6-phosphate 1-dehydrogenase (Homo sapiens, UniProt P11413); assay: human G6PD enzyme inhibitors, dose response, selectivity assay for P. falciparum G6PD inhibitor project, biochemical, fluorescence (AID 504792); format: functional
Chain of Glucose-6-phosphate 1-dehydrogenase (P11413 whole entry): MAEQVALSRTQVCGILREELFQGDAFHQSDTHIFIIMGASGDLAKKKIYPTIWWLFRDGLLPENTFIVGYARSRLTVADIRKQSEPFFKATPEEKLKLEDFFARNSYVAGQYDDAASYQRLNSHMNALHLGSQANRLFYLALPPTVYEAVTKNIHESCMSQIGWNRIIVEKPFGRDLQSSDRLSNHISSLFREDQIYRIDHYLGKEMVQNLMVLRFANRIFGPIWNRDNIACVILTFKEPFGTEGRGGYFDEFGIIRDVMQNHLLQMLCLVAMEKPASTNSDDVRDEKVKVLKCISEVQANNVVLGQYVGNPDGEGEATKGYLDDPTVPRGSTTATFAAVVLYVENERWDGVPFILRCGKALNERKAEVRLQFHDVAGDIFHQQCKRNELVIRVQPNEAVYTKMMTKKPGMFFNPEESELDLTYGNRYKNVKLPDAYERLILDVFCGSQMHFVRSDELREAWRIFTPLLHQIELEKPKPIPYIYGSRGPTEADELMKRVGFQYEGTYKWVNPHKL

[12] = molecular target: DNA dC->dU-editing enzyme APOBEC-3G (Homo sapiens, UniProt Q9HC16); assay: Dose Response confirmation of small molecule APOBEC3G DNA Deaminase Inhibitors via a fluorescence-based single-stranded DNA deaminase assay. [Related pubchem assays (depositor defined):AID493012, AID493028]; format: functional
Chain of DNA dC->dU-editing enzyme APOBEC-3G (Q9HC16 whole entry): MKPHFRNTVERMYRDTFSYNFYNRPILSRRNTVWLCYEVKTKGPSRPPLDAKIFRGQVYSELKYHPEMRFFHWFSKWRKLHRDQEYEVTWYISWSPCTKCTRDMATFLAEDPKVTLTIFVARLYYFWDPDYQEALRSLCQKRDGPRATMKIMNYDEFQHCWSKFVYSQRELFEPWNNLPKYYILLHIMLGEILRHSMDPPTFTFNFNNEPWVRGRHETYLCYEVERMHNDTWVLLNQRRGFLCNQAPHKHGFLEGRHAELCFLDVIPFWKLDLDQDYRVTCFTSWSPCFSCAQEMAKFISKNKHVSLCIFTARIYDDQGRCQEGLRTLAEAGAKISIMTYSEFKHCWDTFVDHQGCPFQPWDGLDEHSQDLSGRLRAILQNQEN

[13] = molecular target: T3, Heat shock factor protein 1 (Mus musculus, UniProt P38532); assay: inhibition of MG132-induced HSE-luciferase signal, confirmation, cell-based, NIH3T3, luminescence, dose retest (AID 2382); format: functional;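 also: NIH3T3 fibroblasts with HSF1-driven luciferase reporter stressed by proteasome inhibitor MG132; luminescence from HSF1-driven luciferase expression after 8 hours of MG132 stress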
T3 sequence (P38532 whole entry): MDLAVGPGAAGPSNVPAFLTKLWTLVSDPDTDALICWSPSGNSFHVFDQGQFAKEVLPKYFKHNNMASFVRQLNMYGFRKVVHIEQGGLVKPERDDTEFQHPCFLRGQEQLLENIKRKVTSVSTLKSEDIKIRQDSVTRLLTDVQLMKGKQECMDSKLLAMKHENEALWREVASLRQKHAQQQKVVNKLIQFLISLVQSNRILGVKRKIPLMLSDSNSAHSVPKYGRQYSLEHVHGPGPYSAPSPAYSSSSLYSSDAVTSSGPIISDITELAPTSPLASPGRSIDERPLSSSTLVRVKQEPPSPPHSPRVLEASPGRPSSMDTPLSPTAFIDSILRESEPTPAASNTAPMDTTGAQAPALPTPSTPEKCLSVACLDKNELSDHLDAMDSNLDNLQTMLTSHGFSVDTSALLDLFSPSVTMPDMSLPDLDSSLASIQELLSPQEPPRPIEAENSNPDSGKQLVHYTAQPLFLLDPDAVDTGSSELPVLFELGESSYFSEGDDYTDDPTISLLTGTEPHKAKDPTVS

[14] = THP-1 cell cytotoxicity, dose response, cytotoxicity control for non-replicating M. tuberculosis project (AID 489025); format: functional
[15] = Vero E6 cell cytotoxicity, dose response, cytotoxicity control for non-replicating M. tuberculosis project, secondary assay (AID 492998); format: functional, VeroE6; settings: Vero C1008
cells [16] = format: functional
[17] = molecular target: FAD-linked sulfhydryl oxidase ALR (Homo sapiens, UniProt P55789); assay: inhibitors of human ALR sulfhydryl oxidase, dose response, biochemical, H2O2 detection, luminescence, cherry-pick (AID 493248)
Chain of FAD-linked sulfhydryl oxidase ALR (P55789 whole entry): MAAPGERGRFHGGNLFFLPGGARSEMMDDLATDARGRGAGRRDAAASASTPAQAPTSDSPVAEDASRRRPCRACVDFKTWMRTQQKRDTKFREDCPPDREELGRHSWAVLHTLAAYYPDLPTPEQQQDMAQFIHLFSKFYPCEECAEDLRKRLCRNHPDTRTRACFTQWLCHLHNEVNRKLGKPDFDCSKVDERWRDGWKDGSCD

[18] = molecular target: T4, Rac GTPase-activating protein 1 (Homo sapiens, UniProt Q9H0H5); assay: MgcRacGAP GTPase-activating activity inhibitors, confirmation, biochemical, ADP Hunter fluorescence, primary and confirmatory (AID 624330); format: functional
T4 sequence (Q9H0H5 whole entry): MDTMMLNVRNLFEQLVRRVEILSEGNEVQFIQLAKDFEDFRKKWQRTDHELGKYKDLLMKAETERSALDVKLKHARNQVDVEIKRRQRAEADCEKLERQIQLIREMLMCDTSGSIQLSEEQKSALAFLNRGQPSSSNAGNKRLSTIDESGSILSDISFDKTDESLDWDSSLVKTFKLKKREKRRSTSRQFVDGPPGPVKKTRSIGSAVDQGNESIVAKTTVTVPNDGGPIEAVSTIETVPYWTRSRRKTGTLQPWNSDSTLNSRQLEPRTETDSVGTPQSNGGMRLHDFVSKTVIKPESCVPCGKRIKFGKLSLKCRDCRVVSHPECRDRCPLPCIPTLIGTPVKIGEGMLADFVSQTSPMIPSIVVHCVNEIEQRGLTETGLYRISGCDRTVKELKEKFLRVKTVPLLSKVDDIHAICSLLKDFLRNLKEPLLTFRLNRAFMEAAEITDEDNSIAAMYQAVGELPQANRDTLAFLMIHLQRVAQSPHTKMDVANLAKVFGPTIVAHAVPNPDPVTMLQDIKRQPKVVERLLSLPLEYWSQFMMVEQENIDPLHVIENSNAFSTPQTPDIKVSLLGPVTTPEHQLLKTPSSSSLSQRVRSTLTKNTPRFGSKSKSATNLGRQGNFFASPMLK

[19] = inhibitors of firefly luciferase expression or activity, dose response, H4 neuroglioma cells, luminescence (AID 1990); format: functional, cell-based
cells [20] = format: functional, cell-based
[21] = Luminescence Cell-Based Dose Response HTS to Identify Inhibitors of 5'UTR Stem-Loop Driven Prion Protein mRNA Translation in H4 Neuroglioblastoma Cells. [Related pubchem assays: 1827 (Project Summary), 1813 (Primary HTS)]; format: functional
[22] = inhibitors of SNCA 5'UTR-driven reporter translation, confirmation, H4 neuroglioma cells, luminescence (AID 1988); format: functional, cell-based
Large T antigen = Large T antigen (Simian virus 40, UniProt P03070); format: functional, Betapolyomavirus macacae;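 also: Confirmatory-stage PubChem screen for compounds that inhibit SV40 T antigen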
Chain of Large T antigen (P03070 whole entry): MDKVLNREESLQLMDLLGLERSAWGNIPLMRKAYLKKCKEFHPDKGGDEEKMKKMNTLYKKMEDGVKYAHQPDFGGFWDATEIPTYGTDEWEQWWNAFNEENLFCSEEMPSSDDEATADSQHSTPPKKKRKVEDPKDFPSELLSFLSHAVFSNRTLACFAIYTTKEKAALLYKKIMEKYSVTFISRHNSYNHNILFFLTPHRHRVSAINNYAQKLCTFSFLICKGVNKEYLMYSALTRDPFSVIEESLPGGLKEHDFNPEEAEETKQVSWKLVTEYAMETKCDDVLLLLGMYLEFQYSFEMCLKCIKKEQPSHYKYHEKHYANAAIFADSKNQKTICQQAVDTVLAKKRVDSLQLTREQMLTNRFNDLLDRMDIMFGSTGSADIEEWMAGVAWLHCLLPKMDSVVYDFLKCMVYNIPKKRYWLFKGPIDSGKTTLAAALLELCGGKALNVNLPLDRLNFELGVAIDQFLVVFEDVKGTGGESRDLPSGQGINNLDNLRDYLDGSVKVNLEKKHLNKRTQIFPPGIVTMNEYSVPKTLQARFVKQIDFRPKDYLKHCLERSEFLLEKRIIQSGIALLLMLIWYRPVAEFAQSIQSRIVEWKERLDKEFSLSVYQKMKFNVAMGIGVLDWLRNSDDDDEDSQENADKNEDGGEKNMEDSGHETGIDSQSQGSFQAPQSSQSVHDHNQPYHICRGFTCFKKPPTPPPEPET

cells [23] = format: functional, cell-based; remark: listed apart in the source
Nonstructural protein 1 = Nonstructural protein 1 (Influenza A virus, UniProt Q194T2); format: functional, Influenza A virus (A/California/07/2009(H1N1))
Chain of Nonstructural protein 1 (Q194T2 whole entry): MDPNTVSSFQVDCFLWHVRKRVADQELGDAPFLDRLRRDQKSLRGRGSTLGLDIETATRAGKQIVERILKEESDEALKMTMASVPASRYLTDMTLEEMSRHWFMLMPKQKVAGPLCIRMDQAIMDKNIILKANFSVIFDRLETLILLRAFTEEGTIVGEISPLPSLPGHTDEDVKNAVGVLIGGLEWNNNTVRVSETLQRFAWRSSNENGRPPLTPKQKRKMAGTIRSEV

Chain of Glyceraldehyde-3-phosphate dehydrogenase (P04406 whole entry): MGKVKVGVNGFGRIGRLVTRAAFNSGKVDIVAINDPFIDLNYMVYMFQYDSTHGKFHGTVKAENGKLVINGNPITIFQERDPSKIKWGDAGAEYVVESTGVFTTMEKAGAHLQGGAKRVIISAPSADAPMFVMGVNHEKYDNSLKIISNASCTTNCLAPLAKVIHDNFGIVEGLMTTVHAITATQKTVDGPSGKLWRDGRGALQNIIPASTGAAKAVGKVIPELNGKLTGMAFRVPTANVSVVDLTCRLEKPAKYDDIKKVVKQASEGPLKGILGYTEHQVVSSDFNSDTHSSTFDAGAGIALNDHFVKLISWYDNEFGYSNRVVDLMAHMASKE

## O=C(O)c1cc(-c2ccc3c(c2)OCCO3)n[nH]1
[1]
  IC50: > 100 µM (not active)
[2]
  IC50: 49.8 µM (active)

## O=c1c2ccccc2[nH]c(=S)n1Cc1cccnc1
[3]
  EC50: 3.35 µM (active)
[4]
  EC50: 2.66 µM (active)

## CC(C)(C)c1ccc(C(=O)NC(=S)NNC(=O)COc2ccccc2)cc1
[5]
  EC50: > 150 µM (inactive)
[6]
  EC50: 0.067 µM (active)
[7]
  EC50: 1.58 µM (active)
[8]
  CC50: 34.1 µM (active)
Streptococcus
  EC50: 1.76 µM (active)
[3]
  EC50: 6.68 µM (active)
[4]
  EC50: 5.96 µM (active)
Vero [9]
  IC50: 23 µM (active)
Vero [10]
  CC50: > 25 µM (active)

## CC1C(=O)OC2C1CC[C@@]1(C)C=CC(=O)[C@@]3(C)O[C@@]213 (some centres undefined)
Cytochrome P450 3A4
  AC50: 39.8 µM (inconclusive)

## COC(=O)[C@H](CCSC)NC(=O)c1cc2c3ccccc3nc-2c[nH]1
[11]
  IC50: > 80 µM (inactive)
[12]
  IC50: 59.6 µM (active)

## Cn1c(N)c(C(=O)COC(=O)c2cc(C(F)(F)F)nc3ccccc23)c(=O)n(Cc2ccccc2)c1=O
Cytochrome P450 3A4
  AC50: 15.8 µM (inconclusive)

## COc1ccccc1NC(=O)c1ccc([N+](=O)[O-])o1
[13]
  EC50: > 195 µM (not active)
[14]
  CC50: 17.5 µM (active)
[15]
  CC50: 5.96 µM (active)
Cells [16]
  IC50: 9.55 µM (active)

## O=S(=O)(N=S1CC=CCN1S(=O)(=O)c1ccccc1)c1ccccc1 (centres undefined)
[12]
  IC50: 2.32 µM (active)
[17]
  AC50: 2.19 µM (active)
[18]
  IC50: 105 µM (active)

## COc1cccc(Cn2c(Oc3ccccc3)nc3c2c(=O)n(C)c(=O)n3C)c1
[3]
  EC50: 7.5 µM (active)

## CN(CC(=O)NC1CCCc2ccccc21)C1CCCCC1 (centres undefined)
[3]
  EC50: 13.3 µM (active)

## Cc1ccccc1Nc1c(-c2ccccn2)nc2ccccn12
[19]
  EC50: 11 µM (active)
Cells [20]
  EC50: 221 µM (active)
[21]
  EC50: 10.4 µM (active)
[22]
  EC50: 10.5 µM (active)
Large T antigen
  IC50: < 0.39 µM (active)
Cells [23]
  EC50: > 350 µM (not active)
[14]
  CC50: 13.7 µM (active)
[15]
  CC50: 3.7 µM (active)
Nonstructural protein 1
  IC50: 14.7 µM (active)
[17]
  AC50: 1.37 µM (active)
Cells [16]
  IC50: 1.75 µM (active)

## c1cnc(-c2cccnc2)nc1
[1]
  IC50: > 100 µM (not active)
[2]
  IC50: > 100 µM (inactive)

## O=C(N/N=C/c1cc([N+](=O)[O-])ccc1O)C12CC3CC(CC(C3)C1)C2
[14]
  CC50: 21 µM (active)
[15]
  CC50: > 20 µM (active)
Cells [16]
  IC50: 16.3 µM (active)

## CCn1cnc(-c2cccnc2)c1
[1]
  IC50: > 100 µM (not active)
[2]
  IC50: > 100 µM (inactive)
